Source: ChEMBL document CHEMBL5537127, “Design and synthesis of novel hederagonic acid analogs as potent anti-inflammatory compounds capable of protecting against LPS-induced acute lung injury” (Eur J Med Chem, 2024)
The source made the active and inactive calls. The rule behind the calls is not given here.

How the values were obtained:
RAW264.7 [1] = experiment: Anti-inflammatory activity against LPS-induced mouse RAW264.7 cells assessed as inhibition of NO production at 20 uM preincubated for 2 hrs followed by LPS addition and measured after 24 hrs by Griess reagent-based microplate reader analysis relative to control; assay type: functional; set-up: scale not given: the % may be the effect or the level left; conditions: time 26 hrs
[2] = Cytotoxicity against mouse RAW264.7 cells assessed as cell viability at 40 uM incubated for 24 hrs by MTT assay relative to control; assay type: toxicity, cell-based; conditions: read-out: Activity
RAW264.7 [3] = experiment: Anti-inflammatory activity against LPS-induced mouse RAW264.7 cells assessed as inhibition of NO production at 10 uM preincubated for 2 hrs followed by LPS addition and measured after 24 hrs by Griess reagent-based microplate reader analysis relative to control; assay type: functional; set-up: scale not given: the % may be the effect or the level left; conditions: time 26 hrs
RAW264.7 [4] = experiment: Anti-inflammatory activity against LPS-induced mouse RAW264.7 cells assessed as decrease in IFN-beta expression preincubated for 2 hrs followed by LPS addition and measured after 12 hrs by ELISA; assay type: functional, cell-based; conditions: time 14.0 hrs
RAW264.7 [5] = experiment: Anti-inflammatory activity against LPS-induced mouse RAW264.7 cells assessed as decrease in IL-6 expression preincubated for 2 hrs followed by LPS addition and measured after 12 hrs by ELISA; assay type: functional, cell-based; conditions: time 14.0 hrs
Mus musculus [6] = experiment: Anti-inflammatory activity against LPS-stimulated BALB/c mouse acute lung injury model assessed as decrease in p65 phosphorylation at 2.5 mg/kg, po administered for 3 days by Western blotting analysis; assay type: functional, organism-based; conditions: time 3.0 day
Mus musculus [7] = experiment: Anti-inflammatory activity against LPS-stimulated BALB/c mouse acute lung injury model assessed as decrease in TBK1 phosphorylation at 2.5 mg/kg, po administered for 3 days by Western blotting analysis; assay type: functional, organism-based; conditions: time 3.0 day
Mus musculus [8] = experiment: Anti-inflammatory activity against LPS-stimulated BALB/c mouse acute lung injury model assessed as decrease in STING expression at 2.5 mg/kg, po administered for 3 days by Western blotting analysis; assay type: functional, organism-based; conditions: time 3.0 day
RAW264.7 [9] = experiment: Anti-inflammatory activity against LPS-induced mouse RAW264.7 cells assessed as decrease in TNF-alpha expression preincubated for 2 hrs followed by LPS addition and measured after 12 hrs by ELISA; assay type: functional, cell-based; conditions: time 14.0 hrs
RAW264.7 [10] = experiment: Anti-inflammatory activity against LPS-induced mouse RAW264.7 cells assessed as decrease in TBK1 phosphorylation at 1 uM by Western blotting analysis; assay type: functional, cell-based
RAW264.7 [11] = experiment: Anti-inflammatory activity against LPS-induced mouse RAW264.7 cells assessed as inhibition of IRF3 nuclear translocation preincubated for 2 hrs followed by LPS addition and measured after 2 hrs by FITC/DAPI staining based laser confocal microscopy analysis; assay type: functional, cell-based; conditions: time 4.0 hrs
RAW264.7 [12] = experiment: Anti-inflammatory activity against LPS-induced mouse RAW264.7 cells assessed as decrease in IRF3 phosphorylation at 1 uM by Western blotting analysis; assay type: functional, cell-based
RAW264.7 [13] = experiment: Anti-inflammatory activity against LPS-induced mouse RAW264.7 cells assessed as decrease in IkappaB phosphorylation at 1 uM by Western blotting analysis; assay type: functional, cell-based
RAW264.7 [14] = experiment: Anti-inflammatory activity against LPS-induced mouse RAW264.7 cells assessed as inhibition of p65 nuclear translocation preincubated for 2 hrs followed by LPS addition and measured after 2 hrs by FITC/DAPI staining based laser confocal microscopy analysis; assay type: functional, cell-based; conditions: time 4.0 hrs
RAW264.7 [15] = experiment: Anti-inflammatory activity against LPS-induced mouse RAW264.7 cells assessed as decrease in STING protein level at 1 uM by Western blotting analysis; assay type: functional, cell-based
Mus musculus [16] = experiment: Anti-inflammatory activity against LPS-stimulated BALB/c mouse acute lung injury model assessed as decrease in IRF3 phosphorylation at 2.5 mg/kg, po administered for 3 days by Western blotting analysis; assay type: functional, organism-based; conditions: time 3.0 day
RAW264.7 [17] = experiment: Anti-inflammatory activity against LPS-induced mouse RAW264.7 cells assessed as decrease in p65 phosphorylation at 1 uM by Western blotting analysis; assay type: functional, cell-based
Mus musculus [18] = experiment: Anti-inflammatory activity against LPS-stimulated BALB/c mouse acute lung injury model assessed as decrease in IkappaB phosphorylation at 2.5 mg/kg, po administered for 3 days by Western blotting analysis; assay type: functional, organism-based; conditions: time 3.0 day

| SMILES | Activity (RAW264.7 [1]) [%] | viability at 24 h, 40 µM [2] [%] | Activity (RAW264.7 [3]) [%] | other results |
| --- | --- | --- | --- | --- |
| CC1(C)CC[C@]2(C(=O)OCc3ccccc3)CC[C@]3(C)C(=CC[C@@H]4[C@@]5(C)CCC(=O)[C@@](C)(COC(=O)c6cc7ccccc7[nH]6)[C@@H]5CC[C@]43C)[C@@H]2C1 | 42.11 | 110 | 22.29 |  |
| CC1(C)CC[C@]2(C(=O)OCc3ccccc3)CC[C@]3(C)C(=CC[C@@H]4[C@@]5(C)C/C(=C/c6cccc([N+](=O)[O-])c6)C(=O)[C@@](C)(CO)[C@@H]5CC[C@]43C)[C@@H]2C1 | 9.38 | 109 | 1.09 |  |
| CC1(C)CC[C@]2(C(=O)OCc3ccccc3)CC[C@]3(C)C(=CC[C@@H]4[C@@]5(C)CCC(=O)[C@@](C)(COC(=O)CCc6c[nH]c7ccccc67)[C@@H]5CC[C@]43C)[C@@H]2C1 | 0.43 | 107 | 0.17 |  |
| CC1(C)CC[C@]2(C(=O)OCc3ccccc3)CC[C@]3(C)C(=CC[C@@H]4[C@@]5(C)C/C(=C/c6cnccn6)C(=O)[C@@](C)(CO)[C@@H]5CC[C@]43C)[C@@H]2C1 | 5.02 | 3.34 | 4.56 |  |
| CC1(C)CC[C@]2(C(=O)OCc3ccccc3)CC[C@]3(C)C(=CC[C@@H]4[C@@]5(C)CCC(=O)[C@@](C)(COC(=O)CNC(=O)CCCC[C@@H]6CCSS6)[C@@H]5CC[C@]43C)[C@@H]2C1 | 46.99 | 114 | 28.81 |  |
| CC1(C)CC[C@]2(C(=O)OCc3ccccc3)CC[C@]3(C)C(=CC[C@@H]4[C@@]5(C)C/C(=C/c6cccc(Br)c6)C(=O)[C@@](C)(CO)[C@@H]5CC[C@]43C)[C@@H]2C1 | 3.82 | 94 | 3.77 |  |
| CC1(C)CC[C@]2(C(=O)OCc3ccccc3)CC[C@]3(C)C(=CC[C@@H]4[C@@]5(C)C/C(=C/c6ccc(Br)cc6)C(=O)[C@@](C)(CO)[C@@H]5CC[C@]43C)[C@@H]2C1 | 10.62 | 92.9 | 6.09 |  |
| CC1(C)CC[C@]2(C(=O)OCc3ccccc3)CC[C@]3(C)C(=CC[C@@H]4[C@@]5(C)CCC(=O)[C@@](C)(CO)[C@@H]5CC[C@]43C)[C@@H]2C1 | 13.6 | 106 | 13.3 |  |
| CC1(C)CC[C@]2(C(=O)OCc3ccccc3)CC[C@]3(C)C(=CC[C@@H]4[C@@]5(C)CCC(=O)[C@@](C)(COC(=O)CCCC[C@@H]6CCSS6)[C@@H]5CC[C@]43C)[C@@H]2C1 | 56.28 | 119 | 29.81 |  |
| CC1(C)CC[C@]2(C(=O)OCc3ccccc3)CC[C@]3(C)C(=CC[C@@H]4[C@@]5(C)CCC(=O)[C@@](C)(COC(=O)CCC6CCCC6)[C@@H]5CC[C@]43C)[C@@H]2C1 | 0.76 | 105 | 0.34 |  |
| O=C(Nc1ccc(I)cc1)c1ccc([N+](=O)[O-])o1 |  |  |  | Activity (RAW264.7 [4]): Active; Activity (RAW264.7 [5]): Active; Activity (Mus musculus [6]): Active; Activity (Mus musculus [7]): Active; Activity (Mus musculus [8]): Active; Activity (RAW264.7 [9]): Active; Activity (RAW264.7 [10]): Active; Activity (RAW264.7 [11]): Active; Activity (RAW264.7 [12]): Active; Activity (RAW264.7 [13]): Active; Activity (RAW264.7 [14]): Active; Activity (RAW264.7 [15]): Active; Activity (Mus musculus [16]): Active; Activity (RAW264.7 [17]): Active; Activity (Mus musculus [18]): Active |
| CC1(C)CC[C@]2(C(=O)OCc3ccccc3)CC[C@]3(C)C(=CC[C@@H]4[C@@]5(C)CCC(=O)[C@@](C)(COC(=O)CCn6cccc6)[C@@H]5CC[C@]43C)[C@@H]2C1 | 12.08 | 96.9 | 7.3 |  |
| CC1(C)CC[C@]2(C(=O)OCc3ccccc3)CC[C@]3(C)C(=CC[C@@H]4[C@@]5(C)CCC(=O)[C@@](C)(COC(=O)CCNC(=O)CCCC[C@@H]6CCSS6)[C@@H]5CC[C@]43C)[C@@H]2C1 | 62.67 | 99.4 | 43.82 |  |
| CC1(C)CC[C@]2(C(=O)OCc3ccccc3)CC[C@]3(C)C(=CC[C@@H]4[C@@]5(C)CCC(=O)[C@@](C)(COC(=O)CCC6CCCCC6)[C@@H]5CC[C@]43C)[C@@H]2C1 | 2.05 | 110 | 0.64 |  |
| CC1(C)CC[C@]2(C(=O)OCc3ccccc3)CC[C@]3(C)C(=CC[C@@H]4[C@@]5(C)CCC(=O)[C@@](C)(COC(=O)CCCCCNC(=O)CCCC[C@@H]6CCSS6)[C@@H]5CC[C@]43C)[C@@H]2C1 | 75.31 | 99.7 | 49.56 |  |
| CC(=O)CCC(=O)OC[C@]1(C)C(=O)CC[C@@]2(C)[C@H]1CC[C@]1(C)[C@@H]2CC=C2[C@@H]3CC(C)(C)CC[C@]3(C(=O)OCc3ccccc3)CC[C@]21C | 59.4 | 106 | 43.51 |  |
| CC1(C)CC[C@]2(C(=O)OCc3ccccc3)CC[C@]3(C)C(=CC[C@@H]4[C@@]5(C)CCC(=O)[C@@](C)(COC(=O)CC#N)[C@@H]5CC[C@]43C)[C@@H]2C1 | 57.99 | 93.1 | 40.79 |  |
| CC[C@H](C)[C@H](NC(=O)CCCC[C@@H]1CCSS1)C(=O)OC[C@]1(C)C(=O)CC[C@@]2(C)[C@H]1CC[C@]1(C)[C@@H]2CC=C2[C@@H]3CC(C)(C)CC[C@]3(C(=O)OCc3ccccc3)CC[C@]21C | 25.3 | 96 | 17.94 |  |
